Numbered stars: 1 amine (or outer) side, 2 acyl side, 3 side chain; on linkers, the order of the positions; unused ones are H or OH. Square brackets hold non-standard residues; d marks the D form. Peptide text beside a SMILES is read from it. Ala(2,4-dioxoquinazolin-3-yl) = N[C@@H](Cn1c(=O)[nH]c2ccccc2c1=O)C(=O)O; Ala(uracil-1-yl) = N[C@@H](Cn1ccc(=O)[nH]c1=O)C(=O)O; X2 = Cc1cn(C[C@H](N[*:1])C(=O)[*:2])c(=O)[nH]c1=O; X3 = Nc1ccn(C[C@H](N[*:1])C(=O)[*:2])c(=O)n1; X1 = Nc1ncnc2c1ncn2C[C@H](N[*:1])C(=O)[*:2]; 2Thi = N[C@@H](Cc1cccs1)C(=O)O; Sar = CNCC(=O)O
Each molecule was assayed against Nucleic Acid (assay: Dissociation constant using ethidium-bromide displacement test).
Format: nucleic-acid assay

Kd | SMILES
490 µM | CC(=O)N[C@@H](CCCN=C(N)N)C(=O)N[C@@H](Cn1ccc(=O)[nH]c1=O)C(=O)N(C)CC(=O)N[C@@H](Cn1c(=O)[nH]c2ccccc2c1=O)C(=O)N[C@@H](Cn1c(=O)[nH]c2ccccc2c1=O)C(=O)N[C@@H](Cn1cc(C)c(=O)[nH]c1=O)C(=O)N[C@@H](CCCN=C(N)N)C(N)=O (Ac-R[Ala(uracil-1-yl)][Sar][Ala(2,4-dioxoquinazolin-3-yl)][Ala(2,4-dioxoquinazolin-3-yl)][X2]R-NH2)
630 µM | CC(=O)N[C@@H](CCCN=C(N)N)C(=O)N[C@@H](Cn1ccc(=O)[nH]c1=O)C(=O)N(C)CC(=O)N[C@@H](Cn1c(=O)[nH]c2ccccc2c1=O)C(=O)N[C@@H](Cn1c(=O)[nH]c2ccccc2c1=O)C(=O)N[C@@H](Cn1ccc(N)nc1=O)C(=O)N[C@@H](CCCN=C(N)N)C(N)=O (Ac-R[Ala(uracil-1-yl)][Sar][Ala(2,4-dioxoquinazolin-3-yl)][Ala(2,4-dioxoquinazolin-3-yl)][X3]R-NH2)
610 µM | CC(=O)N[C@@H](CCCN=C(N)N)C(=O)N[C@@H](Cn1ccc(=O)[nH]c1=O)C(=O)N(C)CC(=O)N[C@@H](Cn1c(=O)[nH]c2ccccc2c1=O)C(=O)N[C@@H](Cn1c(=O)[nH]c2ccccc2c1=O)C(=O)N[C@@H](Cn1ccc(=O)[nH]c1=O)C(=O)N[C@@H](CCCN=C(N)N)C(N)=O (Ac-R[Ala(uracil-1-yl)][Sar][Ala(2,4-dioxoquinazolin-3-yl)][Ala(2,4-dioxoquinazolin-3-yl)][Ala(uracil-1-yl)]R-NH2)
220 µM | CC(=O)N[C@@H](CCCN=C(N)N)C(=O)N[C@@H](Cn1ccc(=O)[nH]c1=O)C(=O)N(C)CC(=O)N[C@@H](Cn1cc(C)c(=O)[nH]c1=O)C(=O)N[C@@H](Cn1c(=O)[nH]c2ccccc2c1=O)C(=O)N[C@@H](Cn1cnc2c(N)ncnc21)C(=O)N[C@@H](CCCN=C(N)N)C(N)=O (Ac-R[Ala(uracil-1-yl)][Sar][X2][Ala(2,4-dioxoquinazolin-3-yl)][X1]R-NH2)
91 µM | CC(=O)N[C@@H](CCCN=C(N)N)C(=O)N[C@@H](Cn1ccc(=O)[nH]c1=O)C(=O)N(C)CC(=O)N[C@@H](Cn1c(=O)[nH]c2ccccc2c1=O)C(=O)N[C@@H](Cn1c(=O)[nH]c2ccccc2c1=O)C(=O)N[C@@H](Cn1c(=O)[nH]c2ccccc2c1=O)C(=O)N[C@@H](CCCN=C(N)N)C(N)=O (Ac-R[Ala(uracil-1-yl)][Sar][Ala(2,4-dioxoquinazolin-3-yl)][Ala(2,4-dioxoquinazolin-3-yl)][Ala(2,4-dioxoquinazolin-3-yl)]R-NH2)
230 µM | CC(=O)N[C@@H](CCCN=C(N)N)C(=O)N[C@@H](Cn1ccc(=O)[nH]c1=O)C(=O)N(C)CC(=O)N[C@@H](Cn1c(=O)[nH]c2ccccc2c1=O)C(=O)N[C@@H](Cn1c(=O)[nH]c2ccccc2c1=O)C(=O)N[C@@H](Cc1cccs1)C(=O)N[C@@H](CCCN=C(N)N)C(N)=O (Ac-R[Ala(uracil-1-yl)][Sar][Ala(2,4-dioxoquinazolin-3-yl)][Ala(2,4-dioxoquinazolin-3-yl)][2Thi]R-NH2)
390 µM | CC(=O)N[C@@H](CCCN=C(N)N)C(=O)N[C@@H](Cn1ccc(=O)[nH]c1=O)C(=O)N(C)CC(=O)N[C@@H](Cn1c(=O)[nH]c2ccccc2c1=O)C(=O)N[C@@H](Cn1c(=O)[nH]c2ccccc2c1=O)C(=O)N[C@@H](Cn1cnc2c(N)ncnc21)C(=O)N[C@@H](CCCN=C(N)N)C(N)=O (Ac-R[Ala(uracil-1-yl)][Sar][Ala(2,4-dioxoquinazolin-3-yl)][Ala(2,4-dioxoquinazolin-3-yl)][X1]R-NH2)

Reference: ChEMBL document CHEMBL1136420, “Comparison of library screening techniques used in the development of dsDNA ligands” (Bioorg Med Chem Lett, 2003)
